Common to all, as to assay type: biochemical
One assay deals with T1, Lck (Homo sapiens, UniProt P06239).
T1 construct: Kinases are expressed as either kinase domains or full length constructs; made in house
Nature of the assay: Kinase inhibition assay (33P transfer), Lck. The following applies: read-out: Lck-1. The gist of the method: (§1)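 Recombinant kinase-domain or full-length fusion proteins (GST or His tag) served as enzyme. Substrate poly(Glu,Tyr) 4:1 or poly(Arg,Ser) 3:1 was bound to the plate; transferred 33P was read by liquid scintillation following acid washing.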

Another assay has as its target T2, Lyn (Homo sapiens, UniProt P07948).
T2 construct: Kinases are expressed as either kinase domains or full length constructs; made in house
Nature of the assay: Kinase inhibition assay (33P transfer), Lyn. The following applies: Table 6, Lyn-1 kinase inhibition class. Summed up: (§2)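 Steps: coat wells with poly(Glu,Tyr) 4:1 or poly(Arg,Ser) 3:1; add purified kinase, [33P]ATP and inhibitor; incubate; wash with 0.5% phosphoric acid; add liquid scintillant; count. IC50 corresponds to half-maximal reduction of bound 33P.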

For another assay, the target named is T3, Src (Homo sapiens, UniProt P12931).
T3 construct: Kinases are expressed as either kinase domains or full length constructs; made in house
Nature of the assay: Kinase inhibition assay (33P transfer), Src. The following applies: Table 6, Src-1 kinase inhibition class. The gist of the method: as §2

Another assay has as its target T4, Fyn (Homo sapiens, UniProt P06241).
T4 construct: Kinases are expressed as either kinase domains or full length constructs; made in house
Nature of the assay: Kinase inhibition assay (33P transfer), Fyn. The following applies: read-out: Fyn-1. Summed up: as §2

The target of a further assay is T5, Zap-70 (Homo sapiens, UniProt P43403).
T5 construct: Kinases are expressed as either kinase domains or full length constructs; made in house
T5 sequence (P43403 1-619): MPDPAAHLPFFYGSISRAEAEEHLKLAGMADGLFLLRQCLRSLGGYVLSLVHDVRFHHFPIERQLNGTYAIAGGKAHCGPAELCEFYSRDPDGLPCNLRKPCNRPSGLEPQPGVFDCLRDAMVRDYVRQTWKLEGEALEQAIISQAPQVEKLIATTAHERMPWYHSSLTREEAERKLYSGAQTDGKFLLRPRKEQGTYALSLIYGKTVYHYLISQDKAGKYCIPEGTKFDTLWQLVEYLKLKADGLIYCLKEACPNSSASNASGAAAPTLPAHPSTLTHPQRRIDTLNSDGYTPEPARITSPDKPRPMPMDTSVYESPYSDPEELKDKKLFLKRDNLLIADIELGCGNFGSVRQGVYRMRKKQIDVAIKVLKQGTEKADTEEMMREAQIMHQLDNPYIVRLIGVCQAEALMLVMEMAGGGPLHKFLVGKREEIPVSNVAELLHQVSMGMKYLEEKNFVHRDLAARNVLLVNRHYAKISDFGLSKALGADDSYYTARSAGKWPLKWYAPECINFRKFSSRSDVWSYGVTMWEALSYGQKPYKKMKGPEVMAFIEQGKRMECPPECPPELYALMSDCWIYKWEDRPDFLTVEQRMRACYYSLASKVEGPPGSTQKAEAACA
Nature of the assay: Kinase inhibition assay (33P transfer), Zap-70. The following applies: read-out: Zap-1. Summed up: as §1

For the next assay, the target named is T6, Itk (Homo sapiens, UniProt Q08881).
T6 construct: Kinases are expressed as either kinase domains or full length constructs; made in house
T6 sequence (Q08881 1-620): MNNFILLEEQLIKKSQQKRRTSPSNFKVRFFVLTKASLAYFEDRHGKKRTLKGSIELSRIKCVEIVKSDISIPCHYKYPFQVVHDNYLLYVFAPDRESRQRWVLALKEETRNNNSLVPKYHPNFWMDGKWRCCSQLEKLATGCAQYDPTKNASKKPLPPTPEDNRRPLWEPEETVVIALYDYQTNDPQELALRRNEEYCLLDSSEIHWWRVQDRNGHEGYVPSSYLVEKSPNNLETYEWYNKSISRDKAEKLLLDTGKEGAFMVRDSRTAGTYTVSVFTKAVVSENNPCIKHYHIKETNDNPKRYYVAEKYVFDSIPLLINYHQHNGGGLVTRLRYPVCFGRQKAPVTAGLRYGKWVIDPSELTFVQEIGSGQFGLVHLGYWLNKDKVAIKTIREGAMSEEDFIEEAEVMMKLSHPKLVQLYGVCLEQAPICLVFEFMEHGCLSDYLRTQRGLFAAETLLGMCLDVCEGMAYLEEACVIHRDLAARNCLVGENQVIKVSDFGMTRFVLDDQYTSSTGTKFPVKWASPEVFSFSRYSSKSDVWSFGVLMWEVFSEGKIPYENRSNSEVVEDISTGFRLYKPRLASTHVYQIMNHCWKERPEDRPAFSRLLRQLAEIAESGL
Nature of the assay: Kinase inhibition assay (33P transfer), Itk. The following applies: read-out: Itk-1. Summed up: as §2

For another assay, the target named is T7, EGFR (Homo sapiens, UniProt P00533).
T7 construct: Kinases are expressed as either kinase domains or full length constructs; made in house
T7 sequence (P00533 25-1210, species assumed): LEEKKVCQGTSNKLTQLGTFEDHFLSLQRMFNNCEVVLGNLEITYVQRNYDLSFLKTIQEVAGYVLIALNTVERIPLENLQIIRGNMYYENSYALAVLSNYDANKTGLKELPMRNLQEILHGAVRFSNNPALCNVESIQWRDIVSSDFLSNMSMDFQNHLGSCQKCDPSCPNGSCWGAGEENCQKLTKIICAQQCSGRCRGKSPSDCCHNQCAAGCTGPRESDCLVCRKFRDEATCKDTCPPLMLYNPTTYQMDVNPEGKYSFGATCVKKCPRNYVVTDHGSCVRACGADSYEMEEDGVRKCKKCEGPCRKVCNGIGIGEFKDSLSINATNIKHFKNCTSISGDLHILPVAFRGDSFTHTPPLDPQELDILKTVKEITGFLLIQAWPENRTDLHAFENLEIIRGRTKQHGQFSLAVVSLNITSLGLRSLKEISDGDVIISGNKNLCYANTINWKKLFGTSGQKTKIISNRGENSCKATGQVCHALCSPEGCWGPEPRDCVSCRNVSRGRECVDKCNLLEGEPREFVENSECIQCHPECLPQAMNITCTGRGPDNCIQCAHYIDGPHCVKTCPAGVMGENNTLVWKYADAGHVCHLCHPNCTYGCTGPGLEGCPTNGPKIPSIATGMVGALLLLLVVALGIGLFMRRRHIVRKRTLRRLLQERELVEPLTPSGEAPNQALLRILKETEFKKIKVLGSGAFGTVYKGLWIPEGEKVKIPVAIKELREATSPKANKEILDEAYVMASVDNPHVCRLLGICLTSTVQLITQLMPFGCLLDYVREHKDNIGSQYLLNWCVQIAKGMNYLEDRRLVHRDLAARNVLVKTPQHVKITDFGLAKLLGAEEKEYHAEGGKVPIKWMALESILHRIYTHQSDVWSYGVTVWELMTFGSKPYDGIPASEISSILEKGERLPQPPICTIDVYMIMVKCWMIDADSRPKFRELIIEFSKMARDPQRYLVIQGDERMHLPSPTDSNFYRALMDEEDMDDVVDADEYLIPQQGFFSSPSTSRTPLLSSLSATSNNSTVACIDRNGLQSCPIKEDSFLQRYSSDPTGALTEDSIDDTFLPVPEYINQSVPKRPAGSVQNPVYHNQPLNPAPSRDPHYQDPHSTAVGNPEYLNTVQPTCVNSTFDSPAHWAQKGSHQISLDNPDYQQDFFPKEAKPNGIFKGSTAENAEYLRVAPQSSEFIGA
Nature of the assay: Kinase inhibition assay (33P transfer), EGFR. The following applies: Table 2, kinase inhibition class; read-out: EGFR-1. Summed up: as §2

The target of the next assay is T8, ErbB2 (Homo sapiens, UniProt P04626).
T8 construct: Kinases are expressed as either kinase domains or full length constructs; made in house
Nature of the assay: Kinase inhibition assay (33P transfer), ErbB2. The following applies: read-out: ErbB2-2. Summed up: as §2

The next assay has as its target T9, Kdr (Homo sapiens, UniProt P35968).
T9 construct: Kinases are expressed as either kinase domains or full length constructs; made in house
Nature of the assay: Kinase inhibition assay (33P transfer), Kdr. The following applies: read-out: KDR-1. The gist of the method: as §1

Another assay addresses T10, Flt-1 (Homo sapiens, UniProt P17948).
T10 construct: Kinases are expressed as either kinase domains or full length constructs; made in house
Nature of the assay: Kinase inhibition assay (33P transfer), Flt-1. The gist of the method:
as §2

The next assay concerns the target T11, Tek (Homo sapiens, UniProt Q02763).
T11 construct: Kinases are expressed as either kinase domains or full length constructs; made in house
Nature of the assay: Kinase inhibition assay (33P transfer), Tek. The following applies: read-out: Tek-1. Summed up:
as §2

Another assay concerns the target T12, c-Met (Homo sapiens, UniProt P08581).
T12 construct: Kinases are expressed as either kinase domains or full length constructs; made in house
Nature of the assay: Kinase inhibition assay (33P transfer), c-Met. The following applies: Table 2, kinase inhibition class; read-out: Met-1. Summed up: as §2

Another assay addresses T13, AKT (Homo sapiens, UniProt Q9Y243).
T13 construct: Kinases are expressed as either kinase domains or full length constructs; made in house
Nature of the assay: Kinase inhibition assay (33P transfer), AKT. The following applies: Table 2, kinase inhibition class; read-out: AKT3-1. Summed up:
as §1

In another assay the target is T14, IGFR-1 (Homo sapiens, UniProt P08069).
T14 construct: Kinases are expressed as either kinase domains or full length constructs; made in house
T14 sequence (P08069 31-1367): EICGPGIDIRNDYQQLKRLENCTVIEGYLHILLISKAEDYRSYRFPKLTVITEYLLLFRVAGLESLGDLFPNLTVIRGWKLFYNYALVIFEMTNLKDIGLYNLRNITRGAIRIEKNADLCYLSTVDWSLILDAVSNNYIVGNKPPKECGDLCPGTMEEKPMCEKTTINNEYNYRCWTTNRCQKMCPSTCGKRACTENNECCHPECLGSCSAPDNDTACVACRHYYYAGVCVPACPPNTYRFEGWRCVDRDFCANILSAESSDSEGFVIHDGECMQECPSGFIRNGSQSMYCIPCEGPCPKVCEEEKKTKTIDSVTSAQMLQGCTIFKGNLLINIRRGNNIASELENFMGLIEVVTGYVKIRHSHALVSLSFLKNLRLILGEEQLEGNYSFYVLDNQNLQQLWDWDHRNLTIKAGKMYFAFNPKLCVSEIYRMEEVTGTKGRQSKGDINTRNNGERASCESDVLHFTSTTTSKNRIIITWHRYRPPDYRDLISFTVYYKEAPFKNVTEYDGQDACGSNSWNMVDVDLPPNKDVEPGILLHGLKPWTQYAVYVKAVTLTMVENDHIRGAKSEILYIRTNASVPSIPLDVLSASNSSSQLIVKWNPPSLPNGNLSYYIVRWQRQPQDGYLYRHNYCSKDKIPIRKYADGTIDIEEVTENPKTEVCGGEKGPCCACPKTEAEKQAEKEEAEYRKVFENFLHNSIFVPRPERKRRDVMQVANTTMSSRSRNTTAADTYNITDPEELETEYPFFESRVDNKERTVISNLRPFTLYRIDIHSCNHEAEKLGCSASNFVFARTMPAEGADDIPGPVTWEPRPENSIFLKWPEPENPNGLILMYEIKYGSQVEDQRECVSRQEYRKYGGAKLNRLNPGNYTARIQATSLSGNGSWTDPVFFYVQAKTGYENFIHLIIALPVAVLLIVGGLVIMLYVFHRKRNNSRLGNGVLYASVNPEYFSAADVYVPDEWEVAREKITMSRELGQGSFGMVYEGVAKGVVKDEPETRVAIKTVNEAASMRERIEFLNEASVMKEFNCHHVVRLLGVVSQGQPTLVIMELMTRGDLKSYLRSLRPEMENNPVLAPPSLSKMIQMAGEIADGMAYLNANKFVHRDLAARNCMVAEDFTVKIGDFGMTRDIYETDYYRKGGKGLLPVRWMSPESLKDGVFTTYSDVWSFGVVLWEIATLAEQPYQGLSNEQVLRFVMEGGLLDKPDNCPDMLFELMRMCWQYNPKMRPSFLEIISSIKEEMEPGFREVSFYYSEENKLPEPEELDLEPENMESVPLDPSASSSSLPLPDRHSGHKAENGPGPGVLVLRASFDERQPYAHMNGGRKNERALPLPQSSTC
Nature of the assay: Kinase inhibition assay, IGFR-1 (Table 2). The following applies: Table 2, kinase inhibition class.

In the next assay the target is T15, PDGFRB (Homo sapiens, UniProt P09619).
T15 construct: Kinases are expressed as either kinase domains or full length constructs; made in house
Nature of the assay: Kinase inhibition assay (33P transfer), PDGFRB. The following applies: read-out: PDGFRB-1.

A further assay concerns the target T16, Hck-1 (Homo sapiens, UniProt P08631).
T16 construct: Kinases are expressed as either kinase domains or full length constructs; made in house
Nature of the assay: Kinase inhibition assay (33P transfer), Hck. The following applies: Table 6, Hck-1 kinase inhibition class.

The target of the next assay is T17, ErbB4 (Homo sapiens, UniProt Q15303).
T17 construct: Kinases are expressed as either kinase domains or full length constructs; made in house
Nature of the assay: Kinase inhibition assay (33P transfer), ErbB4. The following applies: read-out: ErbB4-1.

The target of the next assay is T18, Ret-1 (Homo sapiens, UniProt P07949).
T18 construct: Kinases are expressed as either kinase domains or full length constructs; made in house
Nature of the assay: Kinase inhibition assay (33P transfer), Ret. The following applies: Table 6, Ret-1 kinase inhibition class.

For the next assay, the target named is T19, FGFR1 (Homo sapiens, UniProt P11362).
T19 construct: Kinases are expressed as either kinase domains or full length constructs; made in house
Nature of the assay: Kinase inhibition assay (33P transfer), FGFR1. The following applies: read-out: FGFR1-1.

SMILES strings stand for the structures.

T11 sequence (Q02763 23-1124, species assumed): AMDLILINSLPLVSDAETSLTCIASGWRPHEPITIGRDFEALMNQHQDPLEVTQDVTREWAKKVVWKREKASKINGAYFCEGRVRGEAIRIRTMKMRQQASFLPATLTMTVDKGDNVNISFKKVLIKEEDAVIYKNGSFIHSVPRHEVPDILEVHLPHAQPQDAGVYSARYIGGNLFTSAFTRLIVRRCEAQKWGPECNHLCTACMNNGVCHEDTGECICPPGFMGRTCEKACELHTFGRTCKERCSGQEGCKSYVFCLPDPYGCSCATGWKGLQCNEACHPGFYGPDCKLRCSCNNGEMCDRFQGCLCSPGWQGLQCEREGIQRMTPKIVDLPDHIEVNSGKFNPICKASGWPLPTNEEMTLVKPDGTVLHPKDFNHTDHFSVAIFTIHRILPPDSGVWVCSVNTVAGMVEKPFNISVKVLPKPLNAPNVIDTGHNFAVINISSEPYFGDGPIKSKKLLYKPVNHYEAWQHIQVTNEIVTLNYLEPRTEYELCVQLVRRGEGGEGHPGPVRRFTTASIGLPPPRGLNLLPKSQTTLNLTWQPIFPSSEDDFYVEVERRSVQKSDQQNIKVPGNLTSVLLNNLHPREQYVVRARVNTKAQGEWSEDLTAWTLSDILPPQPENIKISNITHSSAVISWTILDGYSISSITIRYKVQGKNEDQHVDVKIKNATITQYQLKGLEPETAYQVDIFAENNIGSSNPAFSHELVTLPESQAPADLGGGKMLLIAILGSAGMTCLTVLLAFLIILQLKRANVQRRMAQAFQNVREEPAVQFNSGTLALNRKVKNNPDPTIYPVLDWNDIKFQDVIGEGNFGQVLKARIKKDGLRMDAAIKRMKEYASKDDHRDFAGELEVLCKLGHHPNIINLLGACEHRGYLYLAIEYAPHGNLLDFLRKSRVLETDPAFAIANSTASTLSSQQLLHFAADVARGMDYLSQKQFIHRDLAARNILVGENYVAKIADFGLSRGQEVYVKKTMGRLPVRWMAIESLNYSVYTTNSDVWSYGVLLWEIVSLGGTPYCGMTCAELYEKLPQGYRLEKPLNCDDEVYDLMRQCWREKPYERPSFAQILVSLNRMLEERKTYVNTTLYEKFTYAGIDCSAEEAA
T9 sequence (P35968 20-1356, species assumed): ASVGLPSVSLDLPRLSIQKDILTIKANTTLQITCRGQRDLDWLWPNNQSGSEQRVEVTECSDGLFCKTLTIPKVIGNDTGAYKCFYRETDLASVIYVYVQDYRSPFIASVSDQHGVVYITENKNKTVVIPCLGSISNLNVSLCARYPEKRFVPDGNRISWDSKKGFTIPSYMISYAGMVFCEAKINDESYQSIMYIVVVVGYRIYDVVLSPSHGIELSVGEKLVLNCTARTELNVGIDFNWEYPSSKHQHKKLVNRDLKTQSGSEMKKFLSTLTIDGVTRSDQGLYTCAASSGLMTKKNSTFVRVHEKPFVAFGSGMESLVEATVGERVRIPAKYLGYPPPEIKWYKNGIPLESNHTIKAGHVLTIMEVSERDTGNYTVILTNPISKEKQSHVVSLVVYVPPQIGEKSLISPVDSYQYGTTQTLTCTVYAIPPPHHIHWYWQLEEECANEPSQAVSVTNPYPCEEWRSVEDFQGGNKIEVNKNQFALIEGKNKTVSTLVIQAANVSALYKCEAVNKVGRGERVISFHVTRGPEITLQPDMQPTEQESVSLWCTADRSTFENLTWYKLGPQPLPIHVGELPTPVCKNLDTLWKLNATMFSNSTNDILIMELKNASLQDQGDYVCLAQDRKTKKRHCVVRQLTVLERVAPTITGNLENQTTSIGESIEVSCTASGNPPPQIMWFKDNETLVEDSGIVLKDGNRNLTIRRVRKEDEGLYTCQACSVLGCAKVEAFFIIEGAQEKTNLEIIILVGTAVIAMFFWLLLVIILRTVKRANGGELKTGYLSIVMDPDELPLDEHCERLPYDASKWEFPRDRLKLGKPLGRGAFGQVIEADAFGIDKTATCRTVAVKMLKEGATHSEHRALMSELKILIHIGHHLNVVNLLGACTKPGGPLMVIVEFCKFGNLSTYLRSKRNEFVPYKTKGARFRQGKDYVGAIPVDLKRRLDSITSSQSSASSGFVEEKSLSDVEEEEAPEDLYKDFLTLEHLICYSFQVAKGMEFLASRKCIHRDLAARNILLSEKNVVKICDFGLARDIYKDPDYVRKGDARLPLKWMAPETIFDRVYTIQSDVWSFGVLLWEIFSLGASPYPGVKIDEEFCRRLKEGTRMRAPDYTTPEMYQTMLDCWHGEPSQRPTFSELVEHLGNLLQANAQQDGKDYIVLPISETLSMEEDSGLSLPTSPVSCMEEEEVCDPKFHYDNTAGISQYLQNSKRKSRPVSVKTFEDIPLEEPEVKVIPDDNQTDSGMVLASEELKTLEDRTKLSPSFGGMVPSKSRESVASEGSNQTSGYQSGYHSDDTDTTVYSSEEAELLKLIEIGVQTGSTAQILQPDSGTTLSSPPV

As to `COc1cc(Nc2ncnc(-n3c(NCc4ccc(F)cc4Cl)nc4ccccc43)n2)cc(OC)c1OC` [Compound 951], the IC50 on Lck was 0.746 to 4.48 µM; against Lyn, over 8.4 µM; at Src it was over 8.4 µM; at Fyn, over 8.4 µM; at Zap-70, over 8.4 µM; on Itk it was over 8.4 µM. Further, the IC50 on EGFR is 6.53 to 8.4 µM; at ErbB2, over 8.4 µM; at Kdr it was under 0.746 µM; against Flt-1 it was over 8.4 µM; at Tek, 4.48 to 6.53 µM; at c-Met, over 8.4 µM. Besides, the IC50 on AKT is over 8.4 µM; against IGFR-1, over 8.4 µM; on PDGFRB it was under 0.746 µM; against Hck-1 it was over 8.4 µM; on ErbB4, over 8.4 µM; against Ret-1, under 0.746 µM. Moreover, the IC50 on FGFR1 is under 0.746 µM.
For the compound `COc1cc(Nc2ncnc(N(C)c3ccc(Cl)cc3)n2)cc(OC)c1OC` [Compound 616], the IC50 was under 0.995 µM on Lck; 0.995 to 5.97 µM against Lyn; under 0.995 µM against Src; 0.995 to 5.97 µM at Fyn; over 11.2 µM at Zap-70; over 11.2 µM on Itk. For the same compound, the IC50 at EGFR is under 0.995 µM; at ErbB2, 0.995 to 5.97 µM; at Kdr, under 0.995 µM; against Flt-1, 0.995 to 5.97 µM; at Tek it was 0.995 to 5.97 µM; at c-Met, under 0.995 µM. Also, the IC50 at AKT was over 11.2 µM; at IGFR-1, 0.995 to 5.97 µM; on PDGFRB it was under 0.995 µM; against Hck-1 it was 5.97 to 8.71 µM; at ErbB4 it was 0.995 to 5.97 µM; on Ret-1, under 0.995 µM. For the same compound, on FGFR1, the IC50 was in the range of 0.995 to 5.97 µM.
`COc1cc(Nc2ncnc(-n3c(NCc4ccc(Cl)cc4)nc4ccccc43)n2)cc(OC)c1OC` [Compound 944]: the IC50 at Lck is over 8.69 µM; against Lyn, 4.63 to 6.76 µM; on Src, over 8.69 µM; on Fyn, over 8.69 µM; at Zap-70, over 8.69 µM; on Itk it was over 8.69 µM. In addition, the IC50 at EGFR is over 8.69 µM; on ErbB2, over 8.69 µM; at Kdr, under 0.772 µM; on Flt-1, 0.772 to 4.63 µM; on Tek, over 8.69 µM; on c-Met, over 8.69 µM. The IC50 is over 8.69 µM on AKT; 6.76 to 8.69 µM at IGFR-1; 0.772 to 4.63 µM at PDGFRB; over 8.69 µM against Hck-1; over 8.69 µM at ErbB4; under 0.772 µM against Ret-1. At FGFR1, the IC50 fell in the range of 0.772 to 4.63 µM.
